According to publication PMC3147164 (mBio, 2011):

Columns and labels:
HK_1190 = HK_1190 (Myxococcus xanthus, UniProt Q1DD24); settings: excess ATP; kinase buffer pH 8.0, 10 mM MgCl2; labelled compound
HK_4262 = HK_4262 (Myxococcus xanthus, UniProt Q1D4I6); settings: excess ATP; kinase buffer pH 8.0, 10 mM MgCl2; labelled compound
HK_4262, sequence (Q1D4I6 477-702): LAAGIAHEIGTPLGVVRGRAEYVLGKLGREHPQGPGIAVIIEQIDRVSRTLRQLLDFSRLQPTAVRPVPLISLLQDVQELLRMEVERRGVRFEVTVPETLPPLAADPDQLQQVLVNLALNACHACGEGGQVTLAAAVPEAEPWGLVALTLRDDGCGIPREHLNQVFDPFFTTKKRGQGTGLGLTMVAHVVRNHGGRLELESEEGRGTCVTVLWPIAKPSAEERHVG

HK_1190, sequence (Q1DD24 205-424): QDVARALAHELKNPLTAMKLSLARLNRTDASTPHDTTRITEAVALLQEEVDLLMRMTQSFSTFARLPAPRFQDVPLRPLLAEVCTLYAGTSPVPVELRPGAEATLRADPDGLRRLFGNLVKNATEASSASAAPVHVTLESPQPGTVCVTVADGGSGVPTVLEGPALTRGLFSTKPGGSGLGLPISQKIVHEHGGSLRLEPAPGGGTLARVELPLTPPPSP

`Nc1ncnc2c1ncn2[C@@H]1O[C@H](COP(=O)(O)OP(=O)(O)OP(=O)(O)O)[C@@H](O)[C@H]1O` [ATP] was tested, and the “autophosphorylation, radiolabel gel assay” value (HK_1190) was “Both kinases were capable of autophosphorylation” and the “autophosphorylation, radiolabel gel assay” value (HK_4262) was “Both kinases were capable of autophosphorylation”.
